Experimental data reported in patent US8993756B2 (Merck Sharp & Dohme Corp., priority 2011, dated 2015).

Tests used:
JAK3 = JAK3 (Homo sapiens (Human), UniProt P52333); test: Jak Biochemical HTRF Assay (JAK3); details: recombinant GST-tagged catalytic domain, [ATP] 2.9 μM
JAK2 = JAK2 (Homo sapiens (Human), UniProt O60674); test: Jak Biochemical HTRF Assay (JAK2); details: recombinant GST-tagged catalytic domain, [ATP] 8.5 μM
Sequence of JAK2 (O60674 849-1124): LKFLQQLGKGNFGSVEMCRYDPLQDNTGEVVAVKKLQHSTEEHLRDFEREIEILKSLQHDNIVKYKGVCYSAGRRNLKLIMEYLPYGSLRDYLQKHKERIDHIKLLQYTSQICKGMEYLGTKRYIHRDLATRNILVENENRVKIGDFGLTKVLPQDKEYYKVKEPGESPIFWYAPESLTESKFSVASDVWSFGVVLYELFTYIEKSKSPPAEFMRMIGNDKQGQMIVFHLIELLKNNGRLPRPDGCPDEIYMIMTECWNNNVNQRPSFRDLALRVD

Sequence of JAK3 (P52333 822-1111): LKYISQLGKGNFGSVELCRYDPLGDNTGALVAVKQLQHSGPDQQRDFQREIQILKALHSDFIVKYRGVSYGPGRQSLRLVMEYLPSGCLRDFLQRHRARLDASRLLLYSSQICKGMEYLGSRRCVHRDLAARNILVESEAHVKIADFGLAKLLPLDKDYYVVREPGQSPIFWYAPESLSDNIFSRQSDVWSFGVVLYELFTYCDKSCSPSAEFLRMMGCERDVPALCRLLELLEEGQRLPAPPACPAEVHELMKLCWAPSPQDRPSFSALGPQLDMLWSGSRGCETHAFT

Row | SMILES | IC50 (JAK3) | IC50 (JAK2) | IC50 (JAK3; given as range class) | IC50 (JAK2; given as range class)
1 | CCOC(=O)c1c[nH]c2ncnc(-c3ccc(OC)cc3)c12 [Example 1-15, ethyl 4-(4-methoxyphenyl)-7H-pyrrolo[2,3-d]pyrimidine-5-carboxylate] | 5.7 nM | 134 nM | – | –
2 | CCOC(=O)c1c[nH]c2ncnc(-c3cccc(NC(=O)C(C)(O)CO)c3)c12 (stereo not drawn) [Example 18-2, Ethyl-4-(3-(2,3-dihydroxy-2-methylpropanamido)phenyl)-7H-pyrrolo[2,3-d]pyrimidine-5-carboxylate] | – | – | 10 to 500 nM | > 500 nM
3 | C=CC(=O)Nc1cccc(-c2ncnc3[nH]cc(C(=O)OCC)c23)c1C [Example 4-12, ethyl 4-[3-(acryloylamino)-2-methylphenyl]-7H-pyrrolo[2,3-d]pyrimidine-5-carboxylate] | 0.19 nM | > 1500 nM | – | –
4 | C=CC(=O)Nc1cc(-c2ncnc3[nH]cc(C(=O)OCC)c23)ccc1OC [Example 4-15, ethyl 4-[3-(acryloylamino)-4-methoxyphenyl]-7H-pyrrolo[2,3-d]pyrimidine-5-carboxylate] | 0.11 nM | > 1500 nM | – | –
5 | CCOC(=O)c1c[nH]c2ncnc(-c3ccccc3N)c12 [Example 1-55, ethyl 4-(2-aminophenyl)-7H-pyrrolo[2,3-d]pyrimidine-5-carboxylate] | – | – | 10 to 500 nM | > 500 nM
6 | CCOC(=O)c1c[nH]c2ncnc(-c3cccc(NC(=O)/C=C/c4nccs4)c3)c12 [Example 5-39, ethyl 4-(3-{[(2E)-3-(1,3-thiazol-2-yl)prop-2-enoyl]amino}phenyl)-7H-pyrrolo[2,3-d]pyrimidine-5-carboxylate] | 3.9 nM | 496 nM | – | –
7 | CCOC(=O)c1c[nH]c2ncnc(-c3cccc(F)c3)c12 [Example 1-42, ethyl 4-(3-fluorophenyl)-7H-pyrrolo[2,3-d]pyrimidine-5-carboxylate] | 9 nM | 121 nM | – | –
8 | CCOC(=O)c1c[nH]c2ncnc(-c3cccc4c3CCCNC4=O)c12 [Example 1-68, ethyl 4-(1-oxo-2,3,4,5-tetrahydro-1H-2-benzazepin-6-yl)-7H-pyrrolo[2,3-d]pyrimidine-5-carboxylate] | – | – | 10 to 500 nM | > 500 nM
9 | CCOC(=O)c1c[nH]c2ncnc(-c3ccc4c(c3)n(C)c(=O)n4C)c12 [Example 1-66, ethyl 4-(1,3-dimethyl-2-oxo-2,3-dihydro-1H-benzimidazol-5-yl)-7H-pyrrolo[2,3-d]pyrimidine-5-carboxylate] | – | – | 10 to 500 nM | > 500 nM
